Broadly, the pIC50 is the IC50 on a negative log10 scale, so that one unit is a factor of ten.

pIC50: −log10 of the molar value.

The values below come from patent publication US20190134005A1 (BioMarin Pharmaceutical Inc., priority 2016, published 2019).

This test addresses T1, human CGT (Homo sapiens, UniProt Q16880).
T1 sequence (Q16880 21-541): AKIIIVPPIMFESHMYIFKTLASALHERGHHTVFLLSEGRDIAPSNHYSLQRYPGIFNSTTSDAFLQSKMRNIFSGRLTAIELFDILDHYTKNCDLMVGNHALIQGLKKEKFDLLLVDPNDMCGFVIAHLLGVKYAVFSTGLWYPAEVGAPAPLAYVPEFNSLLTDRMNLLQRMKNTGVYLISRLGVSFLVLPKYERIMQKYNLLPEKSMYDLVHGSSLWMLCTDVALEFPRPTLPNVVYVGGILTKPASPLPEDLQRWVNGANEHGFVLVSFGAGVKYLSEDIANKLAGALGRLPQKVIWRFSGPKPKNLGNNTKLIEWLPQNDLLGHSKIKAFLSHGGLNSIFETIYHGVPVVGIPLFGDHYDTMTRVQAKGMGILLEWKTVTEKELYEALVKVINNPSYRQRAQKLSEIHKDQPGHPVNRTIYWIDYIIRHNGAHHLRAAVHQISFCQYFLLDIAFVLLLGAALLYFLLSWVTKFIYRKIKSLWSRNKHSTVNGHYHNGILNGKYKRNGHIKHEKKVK
The test can be described thus: Assay 1: CGT Enzymatic Assay (RapidFire/MS/MS, 0.01% Tween 80). Format: biochemical. The conditions noted are these: Table 1, Compounds of Formula (I) and Formula (II); CGT enzymatic assay; read-out: IC50.

As for `CC1(C)N(c2ccc(Cl)cc2)C(=O)N(c2ccc(Cl)cc2)C1(O)c1cccc(C#N)c1` (centres unmarked) [Compound 138, 3-(1,3-bis(4-chlorophenyl)-4-hydroxy-5,5-dimethyl-2-oxoimidazolidin-4-yl)benzonitrile], the negative-log IC50 (pIC50) was over 6.00.

`CCC1N(c2ccc(F)cc2)C(=O)N(c2ccc(F)cc2)C1(O)c1cccc(C(F)(F)F)c1` (centres unmarked) [Compound 139, 5-ethyl-1,3-bis(4-fluorophenyl)-4-hydroxy-4-(3-(trifluoromethyl)phenyl)imidazolidin-2-one]: the pIC50 is 5.00 to 6.00. The same measure for `CC1N(c2ccc(Cl)cc2)C(=O)N(c2ccc(Cl)cc2)C1(O)c1cccc(C(C)(C)O)c1` (centres unmarked) [Compound 140, 1,3-bis(4-chlorophenyl)-4-hydroxy-4-(3-(2-hydroxypropan-2-yl)phenyl)-5-methylimidazolidin-2-one]: 5.00 to 6.00. The same measure for `C[C@@H]1N(c2ccc(Cl)cc2)C(=O)N(c2ccc(Cl)cc2)C1(O)c1cccc(C(C)(C)O)c1` (stereo partly drawn) [Compound 140-1, (5S)-1,3-bis(4-chlorophenyl)-4-hydroxy-4-(3-(2-hydroxypropan-2-yl)phenyl)-5-methylimidazolidin-2-one]: under 4.30; for `C[C@H]1N(c2ccc(Cl)cc2)C(=O)N(c2ccc(Cl)cc2)C1(O)c1cccc(C(C)(C)O)c1` (stereo partly drawn) [Compound 140-2, (5R)-1,3-bis(4-chlorophenyl)-4-hydroxy-4-(3-(2-hydroxypropan-2-yl)phenyl)-5-methylimidazolidin-2-one]: 5.00 to 6.00; for `O=C1N(c2ccc(Br)cc2)C(=O)C(O)(c2ccccc2)N1c1ccc(Br)cc1` (centres unmarked) [Compound 141, 1,3-bis(4-bromophenyl)-5-hydroxy-5-phenylimidazolidine-2,4-dione]: 4.30 to 5.00. As for `CCC1(O)C(=O)N(c2ccc(Br)cc2)C(=O)N1c1ccc(Br)cc1` (centres unmarked) [Compound 143, 1,3-bis(4-bromophenyl)-5-ethyl-5-hydroxyimidazolidine-2,4-dione], the pIC50 is 4.30 to 5.00. Under `COc1ccc(C2(O)C(=O)N(c3ccc(Br)cc3)C(=O)N2c2ccc(Br)cc2)cc1` (centres unmarked) [Compound 144, 1,3-bis(4-bromophenyl)-5-hydroxy-5-(4-methoxyphenyl)imidazolidine-2,4-dione] stands 4.00 to 4.30. Under `CC(C)c1ccc(N2C(=O)N(c3ccc(C(C)C)cc3)C(O)(c3ccccc3)C2=O)cc1` (centres unmarked) [Compound 145, 5-hydroxy-1,3-bis(4-isopropylphenyl)-5-phenylimidazolidine-2,4-dione] stands 4.00 to 4.30; under `O=C1N(c2ccc(Cl)cc2)C2(CCCC2)C(O)(c2cccc(OC(F)(F)F)c2)N1c1ccc(Cl)cc1` (centres unmarked) [Compound 146, 1,3-bis(4-chlorophenyl)-4-hydroxy-4-(3-(trifluoromethoxy)phenyl)-1,3-diazaspiro[4.4]nonan-2-one], over 6.00; under `O=C1N(c2ccc(Cl)cc2)C(=O)C(O)(c2ccccc2)N1c1ccc(Cl)cc1` (centres unmarked) [Compound 147, 1,3-bis(4-chlorophenyl)-5-hydroxy-5-phenylimidazolidine-2,4-dione], 4.30 to 5.00. As to `O=C1N(c2ccc(Br)cc2)C(=O)C(O)(c2ccc3ccccc3c2)N1c1ccc(Br)cc1` (centres unmarked) [Compound 148, 1,3-bis(4-bromophenyl)-5-hydroxy-5-(naphthalen-2-yl)imidazolidine-2,4-dione], the negative-log IC50 (pIC50) was 4.00 to 4.30.

`CC1(c2cccc(Cl)c2)C(O)N(c2ccc(Cl)cc2)C(=O)N1c1ccc(Cl)cc1` (centres unmarked) [Compound 149, 4-(3-chlorophenyl)-1,3-bis(4-chlorophenyl)-5-hydroxy-4-methylimidazolidin-2-one]: the pIC50 was over 6.00.

Consider `O=C1N(c2ccc(Cl)cc2)C2(COC2)C(O)(c2cccc(OC(F)(F)F)c2)N1c1ccc(Cl)cc1` (centres unmarked) [Compound 150, 5,7-bis(4-chlorophenyl)-8-hydroxy-8-(3-(trifluoromethoxy)phenyl)-2-oxa-5,7-diazaspiro[3.4]octan-6-one], for which the pIC50 was over 6.00. The same measure for `N#Cc1cccc(C2(O)N(c3ccc(Cl)cc3)C(=O)N(c3ccc(Cl)cc3)C23COC3)c1` (centres unmarked) [Compound 151, 3-(5,7-bis(4-chlorophenyl)-8-hydroxy-6-oxo-2-oxa-5,7-diazaspiro[3.4]octan-8-yl)benzonitrile]: over 6.00; for `CCCCC1(O)C(=O)N(c2ccc(Br)cc2)C(=O)N1c1ccc(Br)cc1` (centres unmarked) [Compound 152, 1,3-bis(4-bromophenyl)-5-butyl-5-hydroxyimidazolidine-2,4-dione]: 4.00 to 4.30; for `CC(C)c1ccc(C2(O)C(=O)N(c3ccccc3)C(=O)N2c2ccccc2)cc1` (centres unmarked) [Compound 153, 5-hydroxy-5-(4-isopropylphenyl)-1,3-diphenylimidazolidine-2,4-dione]: under 4.30. Turning to `O=C1N(c2ccc(Cl)cc2)C(=O)C(O)(c2ccc(Cl)cc2)N1c1ccc(Cl)cc1` (centres unmarked) [Compound 154, 1,3,5-tris(4-chlorophenyl)-5-hydroxyimidazolidine-2,4-dione], the negative-log IC50 (pIC50) was 4.00 to 4.30. Under `O=C1N(c2ccc(Cl)cc2F)C(=O)C(O)(c2ccccc2)N1c1ccc(Cl)cc1F` (centres unmarked) [Compound 155, 1,3-bis(4-chloro-2-fluorophenyl)-5-hydroxy-5-phenylimidazolidine-2,4-dione] stands under 4.30; under `O=C1N(c2ccccc2)C(=O)C(O)(c2ccc(OC3CC3)cc2)N1c1ccccc1` (centres unmarked) [Compound 156, 5-(4-cyclopropoxyphenyl)-5-hydroxy-1,3-diphenylimidazolidine-2,4-dione], under 4.30; under `O=C1N(c2ccc(Cl)cc2)C(C2CC2)C(O)(c2cccc(OC(F)F)c2)N1c1ccc(Cl)cc1` (centres unmarked) [Compound 233, 1,3-bis(4-chlorophenyl)-5-cyclopropyl-4-(3-(difluoromethoxy)phenyl)-4-hydroxyimidazolidin-2-one], over 6.00. Under `O=C1N(c2ccc(Cl)cc2)[C@@H](C2CC2)C(O)(c2cccc(OC(F)F)c2)N1c1ccc(Cl)cc1` (stereo partly drawn) [Compound 233-1, (5S)-1,3-bis(4-chlorophenyl)-5-cyclopropyl-4-(3-(difluoromethoxy)phenyl)-4-hydroxyimidazolidin-2-one] stands over 6.00. The same measure for `O=C1N(c2ccc(Cl)cc2)[C@H](C2CC2)C(O)(c2cccc(OC(F)F)c2)N1c1ccc(Cl)cc1` (stereo partly drawn) [Compound 233-2, (5R)-1,3-bis(4-chlorophenyl)-5-cyclopropyl-4-(3-(difluoromethoxy)phenyl)-4-hydroxyimidazolidin-2-one]: over 6.00; for `O=C1N(c2ccc(Cl)cc2)C2(CCOC2)C(O)(c2cccc(OC(F)(F)F)c2)N1c1ccc(Cl)cc1` (centres unmarked) [Compound 234, 1,3-bis(4-chlorophenyl)-4-hydroxy-4-(3-(trifluoromethoxy)phenyl)-7-oxa-1,3-diazaspiro[4.4]nonan-2-one]: over 6.00; for `O=C1N(c2ccc(Cl)cc2)[C@]2(CCOC2)[C@](O)(c2cccc(OC(F)(F)F)c2)N1c1ccc(Cl)cc1` [Compound 234-1, (4R,5S)-1,3-bis(4-chlorophenyl)-4-hydroxy-4-(3-(trifluoromethoxy)phenyl)-7-oxa-1,3-diazaspiro[4.4]nonan-2-one]: over 6.00.

Turning to `O=C1N(c2ccc(Cl)cc2)[C@]2(CCOC2)[C@@](O)(c2cccc(OC(F)(F)F)c2)N1c1ccc(Cl)cc1` [Compound 234-2, (4S,5S)-1,3-bis(4-chlorophenyl)-4-hydroxy-4-(3-(trifluoromethoxy)phenyl)-7-oxa-1,3-diazaspiro[4.4]nonan-2-one], the pIC50 is over 6.00. As for `O=C1N(c2ccc(Cl)cc2)[C@@]2(CCOC2)[C@](O)(c2cccc(OC(F)(F)F)c2)N1c1ccc(Cl)cc1` [Compound 234-3, (4R,5R)-1,3-bis(4-chlorophenyl)-4-hydroxy-4-(3-(trifluoromethoxy)phenyl)-7-oxa-1,3-diazaspiro[4.4]nonan-2-one], the pIC50 was over 6.00.

`O=C1N(c2ccc(Cl)cc2)[C@@]2(CCOC2)[C@@](O)(c2cccc(OC(F)(F)F)c2)N1c1ccc(Cl)cc1` [Compound 234-4, (4S,5R)-1,3-bis(4-chlorophenyl)-4-hydroxy-4-(3-(trifluoromethoxy)phenyl)-7-oxa-1,3-diazaspiro[4.4]nonan-2-one]: the pIC50 was over 6.00. Under `Cc1ccc(N2C(=O)N(c3ccc(C)cc3)C(O)(c3cccc(OC(F)(F)F)c3)C2C(C)C)cc1` (centres unmarked) [Compound 235, 4-hydroxy-5-isopropyl-1,3-di-p-tolyl-4-(3-(trifluoromethoxy)phenyl)imidazolidin-2-one] stands over 6.00. Consider `O=C1N(c2ccc(Cl)cc2)C2(CC2)C(O)(c2cccc(OC(F)F)c2)N1c1ccc(Cl)cc1` (centres unmarked) [Compound 236, 4,6-bis(4-chlorophenyl)-7-(3-(difluoromethoxy)phenyl)-7-hydroxy-4,6-diazaspiro[2.4]heptan-5-one], for which the negative logarithm of the IC50 (pIC50) is over 6.00. Turning to `O=C1N(c2ccc(Cl)cc2)C(C2COC2)C(O)(c2cccc(OC(F)(F)F)c2)N1c1ccc(Cl)cc1` (centres unmarked) [Compound 237, 1,3-bis(4-chlorophenyl)-4-hydroxy-5-(oxetan-3-yl)-4-(3-(trifluoromethoxy)phenyl)imidazolidin-2-one], the pIC50 is over 6.00.

Consider `COC[C@@H]1N(c2ccc(Cl)cc2)C(=O)N(c2ccc(Cl)cc2)C1(O)c1cccc(OC(F)F)c1` (stereo partly drawn) [Compound 238-1, (5S)-1,3-bis(4-chlorophenyl)-4-(3-(difluoromethoxy)phenyl)-4-hydroxy-5-(methoxymethyl)imidazolidin-2-one], for which the pIC50 was over 6.00.
